Measured values published in patent publication US12616672B2, “Methods for assessing risk of cardiovascular disease and methods and compounds for use in treating or preventing cardiovascular disease” (Queen Mary University of London, priority 2017, dated 2026).

Key:
[1] = tested on: healthy volunteer peripheral blood neutrophils, monocytes and platelets; assay: Healthy volunteer whole blood incubated with RvDn-3 DPA then PAF, flow cytometry of activation markers; assay type: cell-based, human; settings: vs PAF alone
Protocol: Blood was collected from healthy volunteers and incubated with RvD2n-3 DPA, RvD5n-3 DPA (0.1 nM, 1 nM or 10 nM) or vehicle (PBS) for 15 min (37° C.) then with PAF (100 ng/ml; 30 min; 37° C.). Cell activation and leukocyte-platelet aggregates were assessed using flow cytometry. (A,B) Representative histograms depicting neutrophil (A) CD11b and (B) CD62P expression. (C,D) Cumulative neutrophil ([…]) CD11b and (D) CD62P expression. (E,F) Monocyte (E) CD11b and (F) CD62P expression. Results are mean of n=5 per time point and expressed as percentage change from PAF incubated cells. *p<0.05 compared to PAF using one-sample t test, followed by Sidak correction of p values.
Blood was collected from healthy volunteers and incubated with RvD2n-3 DPA, RvD5n-3 DPA (0.1 nM, 1 nM or 10 nM) or vehicle (PBS) for 15 min (37° C.) then with PAF (100 ng/ml; 30 min; 37° C.). Cell activation and leukocyte-platelet aggregates were assessed using flow cytometry. (A,B) Images depicting platelet monocyte (A) and (B) platelet-neutrophil aggregates. Results are representative of n=3 distinct experiments. (C,D) Cumulative neutrophil (C) CD11b and (D) CD62P expression. (E,F) Monocyte (E) CD11b and (F) CD62P expression. Results are mean of n=5 per condition and expressed as percentage change from PAF incubated cells. *p<0.05 compared to PAF using Wilcoxon Signed Rank Test. (G) Platelet rich plasma was incubated with vehicle (PBS) or RvD5n-3 DPA 0.1-10 nM (15 min; 37° C.) and PAF (100 nM; 30 min; 37° C.). Adhesion molecule expression evaluated using flow cytometry. Results are mean±s.e.m. n=5 healthy volunteers. * p, 0.05 compared to Vehicle group using Friedman's test followed by Dunn's multiple comparisons test.
(§1) After stimulation, samples were washed twice with PBS for 12 min at 800×g. Samples were stained for flow cytometry as described below.
(§2) Whole blood was incubated with lineage-specific markers for 45 min (4° C., in DPBS containing 0.02% BSA). The following anti-human antibodies were used: VioBlue-anti-CD41, PE-Cy5-anti-CD62P, Brilliant Violet 711-anti-CD11b, APC-Cy7-anti-CD16, Alexa Fluor 647-anti-CD14. After staining, red blood cells were lysed using Whole Blood Lysing Reagent Kit, according to the manufacturer's instructions. Data was collected using a flow cytometer and analysis was conducted using appropriate software.

[2] = tested on: peripheral blood leukocytes and platelets from CVD patients; assay: CVD patient whole blood incubated with RvD2n-3 DPA or RvD5n-3 DPA for 45 min, flow cytometry; assay type: cell-based, human; settings: 45 min, no PAF
Protocol: FIG. 8: RvD2n-3 DPA and RvD5n-3 DPA reduce leukocyte activation in peripheral blood from CVD patients. Peripheral blood from patients diagnosed with cardiovascular disease (CVD) was collected at 9:00 h. […] Expression of CD62P on (A) neutrophils (B) monocytes and CD11b on (C) neutrophils and (D) monocytes was investigated using flow cytometry and fluorescently labelled antibodies.
as §2
In select experiments platelet adhesion molecule expression was assessed. Here platelets were incubated with fluorescently labelled mouse anti-human VioBlue-anti-CD41, PE-Cy5-anti-CD62P, PerCP/Cy5.5-anti-CD63 and FITC-ant-CD42b for 30 min at 4° C. Cells were then washed and fluorescence, staining evaluated using LSRFortessa cell analyser (BD Biosciences) and analysed using FlowJo software (Tree Star Inc., V10).

[3] = tested on: peripheral blood leukocytes and platelets from CVD patients; assay: CVD patient whole blood incubated with RvD2n-3 DPA or RvD5n-3 DPA then PAF, flow cytometry; assay type: cell-based, human
[4] = tested on: peripheral blood leukocytes and platelets from CVD patients; assay: as above; assay type: cell-based, human; settings: 15 min then PAF 30 min
Protocol: Whole blood was incubated with RvD2n-3 DPA or RvD5n-3 DPA (0.1 nM, 1 nM or 10 nM) or vehicle (PBS containing 0.01% EtOH) for 15 min then with PAF (100 ng/ml) for 30 min (37° C.). Expression of CD62P on (A) neutrophils (B) monocytes and CD11b on (C) neutrophils and (D) monocytes was investigated using flow cytometry and fluorescently labelled antibodies. Results are mean±s.em. and expressed as percentage of PAF incubated cells. n=9 patients per interval. * p<0.05 vs Veh group using one-sample t test, followed by Sidak correction of p values.
Whole blood was incubated with RvD2n-3 DPA or RvD5n-3 DPA (0.1 nM, 1 nM or 10 nM) or vehicle (PBS containing 0.01% EtOH) for 15 min then with PAF (100 ng/ml) for 30 min (37° C.). Expression of CD62P on (A) neutrophils (B) monocytes and CD11b on (C) neutrophils and (D) monocytes was investigated using flow cytometry and fluorescently labeled antibodies. Results are mean±s.em. and expressed as percentage of PAF incubated cells. n=9 patients per group. * p<0.05 vs PAF group using Wilcoxon Signed Rank Test.
as §1, §2

[5] = tested on: peripheral blood from CVD patients; settings: ADA 1U, 37° C., 20 min, then perfused 0.3 Pa
Protocol: (B) Peripheral blood from CVD patients was incubated with ADA (1U; 37° C.; 20 min) then perfused (0.3 Pa, 20 min, 37° C.). Plasma was collected and RvDn-3 DPA concentrations determined using LC/MS-MS based lipid mediator profiling. Results are mean±s.e.m. n=6 donors. *p<0.05, using paired Mann-Whitney test.
Using an automated syringe pump (Harvard Apparatus) connected to small-diameter tubing (1.6 mm inner diameter) and chamber slides (15μ-Slide VI^0.4, Ibidi), whole blood was perfused at a sheer rate of 0.1 dyne/cm^2 (low sheer rate) and at 0.3 dyne/cm^2 (high sheer rate) for 15 min. In selected experiment, blood was incubated with 10 nM Ach or 1 u of ADA for 20 min prior perfusing.

[6] = 0.1, 1, 10 nM, 15 min then PAF 30 min
[7] = CVD patient whole blood, 0.1, 1, 10 nM

| Molecule | monocyte expression of CD11b [1, 6] | monocyte expression of platelet marker CD62P [1, 6] | neutrophil CD11b expression [1, 6] | neutrophil-platelet aggregates measured as neutrophil CD62P expression [1, 6] | decrease in monocyte CD41 expression ([1]; at 10 nM, n=5 donors) | decrease in neutrophil CD41 expression ([1]; at 10 nM, n=5 donors) | monocyte CD11b expression [2, 7] | neutrophil CD11b expression [2, 7] | platelet-monocyte aggregates [2, 7] | platelet-neutrophil aggregates [2, 7] | platelet CD62P expression ([2]; CVD patient whole blood) | platelet CD63 expression ([2]; CVD patient whole blood) | expression of CD62P on peripheral blood platelets [3] | expression of CD63 on peripheral blood platelets [3] | expression of CD11b on monocytes [4] | expression of CD11b on neutrophils [4] | platelet-monocyte aggregates measured as CD62P and CD41 expression [4] | platelet-neutrophil aggregates measured as CD62P and CD41 expression [4] | concentrations of RvDn-3 DPA in CVD patient blood [5] |
| --- | --- | --- | --- | --- | --- | --- | --- | --- | --- | --- | --- | --- | --- | --- | --- | --- | --- | --- | --- |
| CC/C=C\CC(O)C(O)/C=C/C=C/C=C\C=C\C(O)CCCCCC(=O)O (stereo not shown) [RvD2n-3 DPA, 7,16,17-trihydroxy-8,10,12,14E,19Z-docosapentaenoic acid] | dose dependent decreases | dose dependent decreases | dose dependent decreases | dose dependent decreases | ~29% | ~20% | without significantly regulating | without significantly regulating | dose-dependently decreased | dose-dependently decreased | downregulated | downregulated | dose-dependently regulated | dose-dependently regulated | only in part shared | only in part shared | decreases | decreases | – |
| adenosine deaminase [ADA] | – | – | – | – | – | – | – | – | – | – | – | – | – | – | – | – | – | – | increase |
